Laboratory results: patent publication US8058264B2, “Pharmaceutical compositions comprising CB1 cannabinoid receptor antagonists and potassium channel openers for the treatment of obesity and related conditions” (Abbott Products GmbH, priority 2004, dated 2011)

Columns and labels:
[1] = test system: rat perifused pancreatic islets; assay: Insulin secretion in rat perifused pancreatic islets, in depth investigation (Phase 1 and Phase 2); format: cell-based
Protocol: (§1) Animals: Male Wistar rats in the weight range 175-200 g were group housed in standard animal cages at a temperature of 21±2° C. and humidity of 55±10%. Animals were maintained on a 12 h light-dark cycle (lights on 06.00-18.00 h) with free access to standard rodent diet (B&K Universal Ltd standard rat and mouse diet (BK 001 P), Beekay Feeds, B&K Universal Ltd, Hull, East Riding of Yorkshire) and tap water. The rats were accustomed to these conditions for at least one week before experimentation.
(§2) Experimental procedures: Three rats (sufficient for the isolation of enough islets to allow for 2 perifusion experiments per day) were sacrificed, the branch of the bile duct leading to the liver and the duodenal end of the duct in the pancreas were clamped and the pancreas distended by injection of ice-cold 0.9 mg/ml collagenase solution into the bile duct. The pancreas were then removed and incubated statically for 10-12 min at 37° C. Following the incubation, 10 ml of cold buffer was added and the suspension shaken vigorously by hand for 1 min. The islets were allowed to settle for 5 min on ice and washed three times using ice-cold buffer. Well formed and good sized islets from 3 rats were hand-picked (under a low power microscope) and pooled and a final selection of islet transferred to the perifusion apparatus. Oxygenated (95% O2/5% CO2) Gey & Gey buffer containing 1 mg/ml bovine serum albumin and 4 mM glucose were used throughout the experiment unless otherwise stated (see Dickinson et al. Eur J Pharmacol 1997;339:69-76 for further details).
On each day, two experiments were performed in parallel in 2 identical, independent sets of perifusion apparatus each consisting of sufficient number of chambers. Each chamber was loaded with 20 hand-picked islets. Islets were perifused for an initial 30 min period in media containing 4 mM glucose. Perifusate was collected at 2 min intervals for the remainder of the experiment. After the first 10 min of the experiment (to collect baseline insulin values), the media in each chamber were switched to one containing the relevant drug concentration/vehicle/glucose concentration and perifusate collected for a further 62 min to produce a total of 36 fractions for each chamber.
Experiments were organised to evaluate firstly (Phase I) the effect of Compounds at a single concentration on glucose-stimulated insulin secretion (two independent sets of experiments) and secondly (Phase II), determination of the dose-dependent effect of these compounds to inhibit insulin secretion at 11 mM glucose (three independent sets of experiments).
Perifusate fractions were stored at −75° C. until required for insulin assay. Insulin content of fractions were assayed using a 96-well ELISA assay (Mercodia). Initial insulin assays were performed on only every third fraction (72 assays per experiment).

[2] = test system: rat perifused pancreatic islets; assay: Insulin secretion in rat perifused pancreatic islets, simple screen at 11 mM glucose; format: cell-based; details: for effect on insulin secretion: 0-30 and 30-60 min
Protocol: as §1, with “001P),” for “001 P),”
as §2, with “After the” for “Three”, “rats” for “rats (sufficient for the isolation of enough islets to allow for 2 perifusion experiments per day)”
On each day, two experiments were performed in parallel in 2 identical, independent sets of perifusion apparatus each consisting of sufficient number of chambers. Each chamber was loaded with 20 hand-picked islets. Islets were perifused for an initial 30 min period in media containing 4 mM glucose. Perifusate was then collected at 2 min intervals for the remainder of the experiment.
Perifusate samples were then pooled to create 3 samples per chamber as follows: Baseline (4 mM): Samples 1-5 (first 10 minutes); 0-30 minutes (11 mM glucose): Samples 6-21; 30-60 minutes (11 mM glucose): Samples 22-36.
Perifusate fractions were stored at −75° C. until required for insulin assay. Insulin content of fractions were assayed using a 96-well ELISA assay (Mercodia). Initial insulin assays were performed in triplicate on three pooled fractions from each chamber (18 samples per experiment, 108 samples in total for 6 experiments).

hamster SUR1 = molecular target: T1, hamster SUR1 (Cricetus cricetus, UniProt Q09427); assay: Competitive binding to sulfonylurea and KCO sites of SUR1 ([3H]glibenclamide displacement, COS-cell membranes); details: SUR1 versus SUR2 selectivity, in words
T1 construct: expressed in transfected cells; host or cells: COS-1 cells, transient transfection (pcDNA vector), membrane preparation
T1 sequence (Q09427 whole entry): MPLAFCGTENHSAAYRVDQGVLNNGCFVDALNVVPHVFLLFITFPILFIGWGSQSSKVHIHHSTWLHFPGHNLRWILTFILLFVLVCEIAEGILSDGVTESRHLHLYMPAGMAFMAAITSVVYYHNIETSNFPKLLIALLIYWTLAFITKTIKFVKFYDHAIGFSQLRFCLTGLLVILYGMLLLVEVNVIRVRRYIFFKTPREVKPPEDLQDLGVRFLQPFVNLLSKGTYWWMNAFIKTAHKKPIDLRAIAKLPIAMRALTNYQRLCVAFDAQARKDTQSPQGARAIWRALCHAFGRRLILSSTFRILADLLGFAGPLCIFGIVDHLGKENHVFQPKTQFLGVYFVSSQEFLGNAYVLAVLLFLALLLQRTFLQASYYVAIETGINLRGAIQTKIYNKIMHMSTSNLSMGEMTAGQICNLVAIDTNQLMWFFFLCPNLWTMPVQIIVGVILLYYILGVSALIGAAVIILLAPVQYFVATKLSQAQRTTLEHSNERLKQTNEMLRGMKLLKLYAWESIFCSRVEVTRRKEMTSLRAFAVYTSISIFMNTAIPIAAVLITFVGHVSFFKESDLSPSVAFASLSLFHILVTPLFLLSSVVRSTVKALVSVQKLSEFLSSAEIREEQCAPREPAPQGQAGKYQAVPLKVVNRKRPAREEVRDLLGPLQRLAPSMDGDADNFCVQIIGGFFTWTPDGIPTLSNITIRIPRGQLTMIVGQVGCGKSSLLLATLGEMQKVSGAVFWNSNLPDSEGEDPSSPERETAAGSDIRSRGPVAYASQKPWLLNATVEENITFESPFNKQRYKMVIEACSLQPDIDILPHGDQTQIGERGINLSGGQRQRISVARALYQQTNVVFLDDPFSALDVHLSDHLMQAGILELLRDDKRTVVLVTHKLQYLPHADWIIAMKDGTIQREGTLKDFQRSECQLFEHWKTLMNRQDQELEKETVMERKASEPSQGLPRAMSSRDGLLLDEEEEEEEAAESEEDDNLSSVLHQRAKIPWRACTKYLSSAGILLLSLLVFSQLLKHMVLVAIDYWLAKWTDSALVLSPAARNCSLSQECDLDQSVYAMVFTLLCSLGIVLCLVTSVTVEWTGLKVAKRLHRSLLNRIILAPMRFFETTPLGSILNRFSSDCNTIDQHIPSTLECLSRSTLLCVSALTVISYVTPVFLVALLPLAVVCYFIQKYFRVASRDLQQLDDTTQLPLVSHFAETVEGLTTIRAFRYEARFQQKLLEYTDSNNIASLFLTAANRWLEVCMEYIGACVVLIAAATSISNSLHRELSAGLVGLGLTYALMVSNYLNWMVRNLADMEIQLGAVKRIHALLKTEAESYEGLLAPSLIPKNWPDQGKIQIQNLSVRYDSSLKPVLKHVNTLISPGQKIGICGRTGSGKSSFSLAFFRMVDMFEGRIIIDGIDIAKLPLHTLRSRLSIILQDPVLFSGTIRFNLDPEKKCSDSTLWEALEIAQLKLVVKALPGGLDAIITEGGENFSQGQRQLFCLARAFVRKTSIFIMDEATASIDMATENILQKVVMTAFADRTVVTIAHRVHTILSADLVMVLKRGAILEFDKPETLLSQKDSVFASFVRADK
Protocol: Competitive binding experiments were performed to characterize the affinity of the test compounds for the binding sites for sulfonylureas and KATP channel openers (=KCOs) on hamster SUR1. To assess the affinity for the sulfonylurea site membranes from COS-cells transiently expressing hamster SUR1 were incubated in the presence of [^3H]glibenclamide with increasing concentrations of test compounds. […] Per curve 9-15 distinct concentrations were tested covering the relevant range. All measurements were repeated at least 5 times in independent experiments.
[^3H]glibenclamide (specific activity 51 Ci mmol^−1) was obtained from NEN (Dreieich, Germany). If suitable, stock solutions were prepared in dimethylsulfoxide with a final solvent concentration in the media below 1%.
SUR- or Kir6.x isoforms were used either subcloned in the pcDNA (hamster SUR1, mouse Kir6.2) or pCMV vector (rat SUR2A, SUR2B).
For transfection the cells were incubated 4 hours in a Tris-buffered salt solution containing DNA (5-10 μg/ml) plus DEAE-dextran (1 mg/ml), 2 min in HEPES-buffered salt solution plus dimethylsulfoxide (10%) and 4 hours in DMEM-HG plus chloroquine (100 μM). Cells were then returned to DMEM-HG plus 10% FCS. […] For binding experiments resuspended membranes (final protein concentration 5-50 μg/ml) were incubated in “Tris-buffer” (50 mM, pH 7.4) containing either [^3H]glibenclamide (final concentration 0.3 nM or 3 nM and nonspecific binding defined by 100 nM or 1 μM glibenclamide for SUR1 or SUR2Y1205S-isoforms, respectively) or [^3H]P1075 (final concentration 3 nM, nonspecific binding defined by 100 μM pinacidil) and increasing concentrations of the test compounds. […] Incubations were carried out for 1 h at room temperature and were terminated by rapid filtration through Whatman GF/B filters.
The inhibition constant (Ki value) of the test substances was calculated from the respective IC50 value, and was stated as the negative logarithmised value thereof (pKi).

[3] = test system: male sugar rats [Ico: ZUCKER-fa/fa (fatty)]; assay: 2 week chronic administration: body weight gain in male sugar rats (ZUCKER-fa/fa); format: in vivo, rat; details: for decrease of body weight in comparison to vehicle-treated rats: day 14
Protocol: Studies were performed in male sugar rats [[Ico: ZUCKER-fa/fa (fatty) (Orl] (Charles River France) weighing initially 400 to 490 g. Animals were housed two or three in a plastic cage in a temperature (20-24° C.), relative humidity (45-65%) and 12-h light/dark cycle (light 7:00 a.m. to 7:00 p.m.)—controlled room for 6 days before being used. All animals had free access to filtered tap water and standard pelleted laboratory chow (U.A.R., Villemois-son-sur-Orge, France). Animals were individually identified on the tail.
At the end of the acclimatization period, animals were individually housed in wire-topped plastic cages. A pre-weighed quantity of food and water were placed on the roof grids. Each rat was acclimated to the handling and dosing procedure the 3 days preceding the start of treatment. Water and food intake was measured during the 24 h that followed dosing procedure to establish baseline food and water intake for each animal. Thereafter, the rats were randomly assigned to either vehicle or drug treatment groups.
Between 9:00-10:00 a.m. on the day of study, the animals were injected p.o. with either vehicle or differing doses of test compounds in a volume of 2 ml/kg each day for 14 consecutive days. During the 5-day post-treatment period, vehicle was given to all groups.
Daily food and water intake was determined per cage throughout the 14-day treatment period and the 5-day post-treatment period. Individual body weights were checked daily for the subsequent treatment and post-treatment periods. Data were collected before each dosing procedure.

[4] = test system: glucose-stimulated insulin release; assay: Inhibition of glucose-stimulated insulin release (NN-414 versus diazoxide); format: cell-based

In the case of CC1=NS(=O)(=O)c2cc(Cl)ccc2N1 [Diazoxide, diazoxide, reference compound], the “effect on time-dependent insulin secretion” value ([1]; Phase 2, 11 mM glucose, 10 μM) is reported as “only a partial inhibition”, the “reduction of mean insulin secretion” value ([1]; Phase 2, 11 mM glucose, 10 μM) is reported as 50% and the “effect on time-dependent insulin secretion” value ([1]; Phase 2, 11 mM glucose, 100 μM) is reported as “almost completely blocked the stimulatory effect of 11 mM glucose”. For the same compound, the “reduction of mean insulin secretion” value ([1]; Phase 2, 11 mM glucose, 100 μM) was 94%.

CNC(=NS(=O)(=O)c1ccc(C(F)(F)F)cc1)N1CC(c2cccnc2)C(c2ccc(Cl)cc2)=N1 (stereo not drawn) [Compound 4, 3-(4-chlorophenyl)-N-methyl-4-pyridin-3-yl-N′-{[4-(trifluoromethyl)phenyl]sulfonyl}-4,5-dihydro-1H-pyrazole-1-carboximidamide] was tested, and the “amount of inhibition of insulin secretion compared with diazoxide” value [2] was “notably greater than diazoxide at 30-60 min”, the “effect on insulin secretion” value [2] was “significantly inhibited insulin secretion at both 0-30 and 30-60 min” and the “pki (SUR1) compared with pki (SUR2)” value (hamster SUR1) was “pki (SUR1) larger than pki (SUR2)”.

With CN(C)CCNC(=NS(=O)(=O)N1CCCCC1)N1CC(c2ccccc2)C(c2ccc(Cl)cc2)=N1 (stereo not drawn) [Compound 2, 3-(4-chlorophenyl)-N-[2-(dimethylamino)ethyl]-4-phenyl-N′-(piperidin-1-ylsulfonyl)-4,5-dihydro-1H-pyrazole-1-carboximidamide] the “effect on insulin secretion” value [2] was “significantly inhibited insulin secretion (only at 0-30 min for compound 2)”.

CNC(=NS(=O)(=O)c1ccc(Cl)cc1)N1C[C@H](c2ccccc2)C(c2ccc(Cl)cc2)=N1 [Compound A, (4S)-3-(4-chlorophenyl)-N′-[(4-chlorophenyl)sulfonyl]-N-methyl-4-phenyl-4,5-dihydro-1H-pyrazole-1-carboximidamide] was tested, and the “effect on insulin secretion at 4 mM glucose” value ([1]; Phase 1, 10 μM, 4 mM glucose) was “no effect of compound A on insulin secretion at 4 mM glucose in two experiments and a slight effect to stimulate insulin secretion in one experiment”, the “effect on insulin secretion at 8 mM glucose” value ([1]; Phase 1, 10 μM, 8 mM glucose) was “completely inhibited insulin secretion at 8 mM glucose in two of the experiments and moderately inhibited insulin secretion in the third experiment” and the “effect on insulin secretion at 16 mM glucose” value ([1]; Phase 1, 10 μM, 16 mM glucose) was “moderate effect to inhibit insulin secretion in one experiment but only a slight effect in the other experiment”. For the same compound, the “dose dependency of effect on mean insulin secretion” value ([1]; Phase 2, 11 mM glucose) was “dose-dependent effects to inhibit mean insulin secretion”, the “doses at which inhibition of mean insulin secretion attained statistical significance” value ([1]; Phase 2, 11 mM glucose) was 3 µM and 10 µM and the “effect on time-dependent insulin secretion” value ([1]; Phase 2, 11 mM glucose, 10 μM) was “clearly more effective than the comparable (10 μM) dose of diazoxide”. For the same compound, the “reduction of mean insulin secretion” value ([1]; Phase 2, 11 mM glucose, 10 μM) was 74%, the “dose dependency of effect on time-dependent insulin secretion” value ([1]; Phase 2, 11 mM glucose, four doses) was “dose-dependent effects to block insulin secretion” and the “decrease of body weight in comparison to vehicle-treated rats” value (“decrease of body weight in comparison” below) ([3]; 3 mg/kg p.o. daily) was 5.3%. For the same compound, the “decrease of body weight in comparison” value ([3]; 10 mg/kg p.o. daily) was 6.7%, the “decrease of body weight in comparison” value ([3]; 30 mg/kg p.o. daily) was 5.9% and the “effect on body weight during treatment” value ([3]; 3, 10 and 30 mg/kg p.o., 14 days) was “sustained non dose-dependent reduction in body weight at all doses administered”. The “body weight on interruption of drug treatment” value ([3]; 5-day post-treatment period) was “progressively returned towards control levels” and the “pki (SUR1) compared with pki (SUR2)” value (hamster SUR1) was “pki (SUR1) larger than pki (SUR2)”.

For CNC(=NS(=O)(=O)N1CCCCC1)N1C[C@H](c2ccccc2)C(c2ccc(Cl)cc2)=N1 [Compound 3, (4S)-3-(4-chlorophenyl)-N-methyl-4-phenyl-N′-(piperidin-1-ylsulfonyl)-4,5-dihydro-1H-pyrazole-1-carboximidamide], the “amount of inhibition of insulin secretion compared with diazoxide” value [2] was “notably greater than diazoxide at 30-60 min” and the “effect on insulin secretion” value [2] was “significantly inhibited insulin secretion at both 0-30 and 30-60 min”.

With CC1(NC2=Nc3cc(Cl)sc3S(=O)(=O)N2)CC1 [NN-414] the “potency to inhibit glucose-stimulated insulin release relative to diazoxide” value [4] was 100 times.

For CN[C@@H](Cc1c[nH]c2ccccc12)C(=O)N1CC(c2ccccc2)C(c2ccc(Cl)cc2)=N1 (stereo partly drawn) [Compound 1, (2S)-1-[3-(4-chlorophenyl)-4-phenyl-4,5-dihydro-1H-pyrazol-1-yl]-3-(1H-indol-3-yl)-N-methyl-1-oxopropan-2-amine], the “effect on insulin secretion” value [2] was “significantly inhibited insulin secretion” and the “pki (SUR1) compared with pki (SUR2)” value (hamster SUR1) was “pki (SUR1) larger than pki (SUR2)”.
